Laboratory results: article PMC7047428 (ACS Central Science, 2020)

Columns and labels:
D2R WT [1] = target: T1, D2R WT (Homo sapiens, UniProt P14416); assay: Split luciferase GloSensor cAMP assay, activation of Gi protein; type: cell-based; details: for G protein EC50: wild type D2R, HEK 293T, cAMP GloSensor
D2R WT [2] = target: T1, D2R WT; assay: Tango arrestin recruitment assay; type: cell-based; details: wild type D2R, HTLA cells

T1 sequence (P14416 whole entry): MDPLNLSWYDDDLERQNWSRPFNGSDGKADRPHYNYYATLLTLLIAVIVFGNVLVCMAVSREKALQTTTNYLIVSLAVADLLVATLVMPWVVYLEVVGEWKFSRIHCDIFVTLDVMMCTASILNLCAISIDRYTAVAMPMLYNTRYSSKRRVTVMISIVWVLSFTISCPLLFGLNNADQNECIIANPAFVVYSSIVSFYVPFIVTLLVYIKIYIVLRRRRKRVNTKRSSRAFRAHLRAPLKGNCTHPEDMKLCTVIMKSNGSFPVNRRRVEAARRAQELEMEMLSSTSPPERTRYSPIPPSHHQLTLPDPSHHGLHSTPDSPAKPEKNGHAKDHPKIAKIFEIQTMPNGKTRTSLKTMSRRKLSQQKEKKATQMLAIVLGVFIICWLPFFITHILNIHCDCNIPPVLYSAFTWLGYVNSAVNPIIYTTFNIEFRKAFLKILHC

EC50 (D2R WT [1]) [nM]	β-arrestin EC50 (D2R WT [2])	G protein EC50 (D2R WT [1])	SMILES
18.6	–	–	Oc1c(CN2CCN(c3ccccn3)CC2)cc(F)c2cccnc12 [MLS-d1, 5-Fluoro-7-((4-(pyridin-2-yl)piperazin-1-yl)methyl)quinolin-8-ol]
95	–	–	Oc1c(CN2CCN(c3ccccn3)CC2)ccc2cccnc12 [MLS-d2, 7-((4-(Pyridin-2-yl)piperazin-1-yl)methyl)quinolin-8-ol]
–	completely inactive	completely inactive	Oc1c(CN2CCN(c3ccccn3)CC2)cc(Br)c2cccnc12 [MLS-d3, 5-Bromo-7-((4-(pyridin-2-yl)piperazin-1-yl)methyl)quinolin-8-ol]
–	did not show activation	did not show activation	O=[N+]([O-])c1cc(CN2CCN(c3ccccn3)CC2)c(O)c2ncccc12 [MLS-d4, 5-Nitro-7-((4-(pyridin-2-yl)piperazin-1-yl)methyl)quinolin-8-ol]
